Source: ChEMBL document CHEMBL5715954, “Silencing c-Myc translation as a therapeutic strategy through targeting PI3Kδ and CK1ε in hematological malignancies” (Blood, 2017)
The source made the active and inactive calls. No cut-off for these calls is given here.

Tests used:
[1] = tested on: MZL; assay: Induction of apoptosis in human MZL cells assessed as increase in cleaved-PARP expression at 5 uM measured after 24 hrs in presence of bortezomib by Western blot analysis; type: functional, cell-based
[2] = biological target: T1, mTORC1 (Homo sapiens) (UniProt P42345+Q8N122+Q9BVC4); assay: Inhibition of mTORC1 in human SLL cells assessed as reduction in 4E-BP1 phosphorylation at 5 uM measured after 24 hrs in presence of bortezomib by Western blot analysis; type: cell-based
[3] = biological target: Myc proto-oncogene protein (Homo sapiens) (UniProt P01106); assay: Inhibition of c-Myc in human LY10 cells assessed as reduction in eIF4B expression at 3 uM incubated for 24 hrs in presence of bortezomib by Western blot analysis; type: cell-based
[4] = biological target: Casein kinase I isoform epsilon (Homo sapiens, UniProt P49674); assay: Inhibition of CK1epsilon in human LY7 cells assessed as reduction in CK1epsilon autophosphorylation at 25 uM preincubated for 1 hr followed by addition of PP2A inhibitor calyculin A and measured after 15 to 60 mins by Western blot analysis; type: cell-based; details: time lower 75.0 min, time upper […]
[5] = tested on: CLL cell; assay: Induction of apoptosis in human CLL cells assessed as increase in cleaved-PARP expression at 5 uM measured after 24 hrs in presence of bortezomib by Western blot analysis; type: functional, cell-based
[6] = biological target: T1, mTORC1 (Homo sapiens); assay: Inhibition of mTORC1 in human PF-382 cells assessed as reduction in c-Myc expression at 5 uM measured after 24 hrs in presence of bortezomib by Western blot analysis; type: cell-based
[7] = tested on: OCI-Ly7; assay: Cytotoxicity against human OCILY7 cells transfected with empty vector assessed as reduction in cell viability at 3 to 5 uM incubated for 24 hrs in presence of carfilzomib by cell-titer glo assay; type: functional, cell-based; details: dose 3-5 µM
[8] = biological target: T1, mTORC1 (Homo sapiens); assay: Inhibition of mTORC1 in human OCILY7 cells transfected with empty vector assessed as reduction in endogenous c-Myc expression at 3 to 5 uM incubated for 24 hrs in presence of carfilzomib by Western blot analysis; type: cell-based; details: dose 3-5 µM
[9] = biological target: Myc proto-oncogene protein (Homo sapiens) (UniProt P01106); assay: Inhibition of c-Myc in human LY7 cells assessed as reduction in E2F1 expression at 3 uM incubated for 24 hrs in presence of carfilzomib by Western blot analysis; type: cell-based
[10] = biological target: T2, Phosphatidylinositol 4,5-bisphosphate 3-kinase catalytic subunit delta isoform (Homo sapiens) (UniProt O00329); assay: Inhibition of PI3Kdelta in human DB cells assessed as reduction in AKT phosphorylation at S473 residue at 1 uM measured after 4 hrs relative to control; type: cell-based
T2 sequence (whole entry): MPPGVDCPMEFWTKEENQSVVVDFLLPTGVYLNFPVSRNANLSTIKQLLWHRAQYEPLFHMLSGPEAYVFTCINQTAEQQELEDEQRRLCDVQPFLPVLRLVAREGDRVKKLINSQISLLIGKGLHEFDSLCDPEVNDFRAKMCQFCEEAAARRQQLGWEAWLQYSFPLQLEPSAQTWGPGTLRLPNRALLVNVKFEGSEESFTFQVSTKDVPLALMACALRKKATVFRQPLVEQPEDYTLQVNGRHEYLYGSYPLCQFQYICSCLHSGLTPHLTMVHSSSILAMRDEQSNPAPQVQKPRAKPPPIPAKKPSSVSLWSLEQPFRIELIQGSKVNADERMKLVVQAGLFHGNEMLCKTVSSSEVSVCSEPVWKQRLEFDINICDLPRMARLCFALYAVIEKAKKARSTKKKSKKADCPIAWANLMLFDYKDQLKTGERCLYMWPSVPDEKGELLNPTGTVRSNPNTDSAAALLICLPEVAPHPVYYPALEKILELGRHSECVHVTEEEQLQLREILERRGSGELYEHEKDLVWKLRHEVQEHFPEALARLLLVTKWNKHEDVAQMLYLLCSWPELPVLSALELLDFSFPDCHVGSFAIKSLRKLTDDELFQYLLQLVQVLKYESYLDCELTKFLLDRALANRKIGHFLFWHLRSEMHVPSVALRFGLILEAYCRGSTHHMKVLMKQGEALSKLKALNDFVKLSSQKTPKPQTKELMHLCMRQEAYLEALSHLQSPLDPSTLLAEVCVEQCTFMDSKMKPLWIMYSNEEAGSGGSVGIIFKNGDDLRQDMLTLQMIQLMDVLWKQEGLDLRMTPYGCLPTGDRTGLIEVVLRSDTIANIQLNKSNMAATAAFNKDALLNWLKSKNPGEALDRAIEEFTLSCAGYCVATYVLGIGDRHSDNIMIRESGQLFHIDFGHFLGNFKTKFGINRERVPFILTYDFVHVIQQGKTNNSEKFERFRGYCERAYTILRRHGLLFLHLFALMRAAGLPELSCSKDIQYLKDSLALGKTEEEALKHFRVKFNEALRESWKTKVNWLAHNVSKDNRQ

[11] = biological target: T1, mTORC1 (Homo sapiens); assay: Inhibition of mTORC1 in human CLL cells assessed as reduction in 4E-BP1 phosphorylation at 5 uM measured after 24 hrs in presence of carfilzomib by Western blot analysis; type: cell-based; details: CLL cell
[12] = Inhibition of PI3Kdelta/CK1epsilon in human OCILY7 cells transfected with c-myc-5'-UTR-luciferase construct assessed as reduction in c-myc translation at 15 uM incubated for 24 hrs by luciferase reporter gene assay relative to control; details: OCI-Ly7
[13] = biological target: Myc proto-oncogene protein (Homo sapiens) (UniProt P01106); assay: Inhibition of c-Myc in human LY10 cells assessed as reduction in E2F1 expression at 3 uM incubated for 24 hrs in presence of carfilzomib by Western blot analysis; type: cell-based
[14] = biological target: T2, Phosphatidylinositol 4,5-bisphosphate 3-kinase catalytic subunit delta isoform (Homo sapiens); assay: Inhibition of PI3Kdelta in human MOLT-4 cells assessed as reduction in AKT phosphorylation at S473 residue at 1 uM measured after 4 hrs relative to control; type: cell-based
[15] = biological target: T1, mTORC1 (Homo sapiens); assay: Inhibition of mTORC1 in human OCILY7 cells transfected with c-myc-5'-UTR-luciferase construct assessed as reduction in c-myc translation at 3 to 5 uM incubated for 24 hrs in presence of carfilzomib by luciferase reporter gene assay; type: cell-based; details: dose 3-5 µM
[16] = biological target: T2, Phosphatidylinositol 4,5-bisphosphate 3-kinase catalytic subunit delta isoform (Homo sapiens); assay: Inhibition of PI3Kdelta in human MOLT-4 cells assessed as reduction in AKT phosphorylation at S473 residue measured after 4 hrs; type: cell-based; details: dose 10-10000 nM
[17] = biological target: T1, mTORC1 (Homo sapiens); assay: Inhibition of mTORC1 in human NCI-H929 cells assessed as reduction in c-Myc expression at 5 uM measured after 24 hrs in presence of carfilzomib by Western blot analysis; type: cell-based
[18] = tested on: LY7; assay: Inhibition of PI3Kdelta/CK1epsilon in human LY7 cells assessed as reduction in 4E-BP1 phosphorylation at 25 uM incubated for 24 hrs by Western blot analysis; type: cell-based
[19] = biological target: T1, mTORC1 (Homo sapiens); assay: Inhibition of mTORC1 in human NCI-H929 cells transduced with an eIF4E-overexpressing plasmid assessed as reduction in c-Myc expression at 5 uM incubated for 24 hrs in presence of carfilzomib by Western blot analysis; type: cell-based
[20] = tested on: OCI-Ly7; assay: Cytotoxicity against human OCILY7 cells transfected with empty vector assessed as reduction in cell viability at 7.5 to 25 uM incubated for 24 hrs by cell-titer glo assay; type: functional, cell-based; details: dose 7.5-25 µM
[21] = biological target: T1, mTORC1 (Homo sapiens); assay: Inhibition of mTORC1 in human NCI-H929 cells transduced with an eIF4E-overexpressing plasmid assessed as reduction in eIF4E expression at 5 uM incubated for 24 hrs in presence of carfilzomib by Western blot analysis; type: cell-based

T1 sequence (Q8N122 whole entry, looked up, other chains not shown): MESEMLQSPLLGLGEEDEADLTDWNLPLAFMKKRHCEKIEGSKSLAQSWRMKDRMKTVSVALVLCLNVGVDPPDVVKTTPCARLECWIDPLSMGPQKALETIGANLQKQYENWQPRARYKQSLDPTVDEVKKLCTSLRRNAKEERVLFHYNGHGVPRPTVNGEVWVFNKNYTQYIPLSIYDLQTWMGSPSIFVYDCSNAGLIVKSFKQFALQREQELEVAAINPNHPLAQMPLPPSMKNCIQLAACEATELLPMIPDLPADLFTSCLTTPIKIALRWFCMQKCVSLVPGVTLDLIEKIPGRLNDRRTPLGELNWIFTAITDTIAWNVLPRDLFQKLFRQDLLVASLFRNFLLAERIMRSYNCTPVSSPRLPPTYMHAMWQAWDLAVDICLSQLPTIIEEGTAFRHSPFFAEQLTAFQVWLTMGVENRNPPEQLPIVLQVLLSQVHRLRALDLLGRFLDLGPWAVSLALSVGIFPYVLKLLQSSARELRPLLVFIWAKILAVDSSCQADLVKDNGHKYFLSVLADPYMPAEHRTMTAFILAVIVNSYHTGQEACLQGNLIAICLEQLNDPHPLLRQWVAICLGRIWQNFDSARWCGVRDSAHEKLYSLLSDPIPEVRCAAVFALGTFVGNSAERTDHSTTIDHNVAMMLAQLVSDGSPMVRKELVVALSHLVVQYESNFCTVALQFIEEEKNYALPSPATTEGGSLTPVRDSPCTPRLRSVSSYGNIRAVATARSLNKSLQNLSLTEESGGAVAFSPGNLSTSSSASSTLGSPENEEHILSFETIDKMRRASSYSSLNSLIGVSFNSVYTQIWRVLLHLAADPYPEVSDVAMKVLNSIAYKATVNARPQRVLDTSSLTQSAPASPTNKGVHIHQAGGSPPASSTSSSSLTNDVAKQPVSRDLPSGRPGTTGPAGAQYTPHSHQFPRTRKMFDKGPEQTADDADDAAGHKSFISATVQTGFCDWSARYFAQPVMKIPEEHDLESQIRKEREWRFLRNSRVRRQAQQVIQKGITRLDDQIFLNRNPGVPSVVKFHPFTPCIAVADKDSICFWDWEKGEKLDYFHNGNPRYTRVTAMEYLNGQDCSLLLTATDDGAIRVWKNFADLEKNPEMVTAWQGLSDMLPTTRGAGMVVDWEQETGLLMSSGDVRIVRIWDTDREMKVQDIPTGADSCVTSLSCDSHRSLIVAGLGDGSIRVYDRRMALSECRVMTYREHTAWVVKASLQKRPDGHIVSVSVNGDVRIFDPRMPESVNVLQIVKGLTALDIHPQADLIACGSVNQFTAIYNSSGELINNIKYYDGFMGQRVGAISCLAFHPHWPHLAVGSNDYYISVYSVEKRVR
T1 sequence (Q9BVC4 whole entry, looked up, other chains not shown): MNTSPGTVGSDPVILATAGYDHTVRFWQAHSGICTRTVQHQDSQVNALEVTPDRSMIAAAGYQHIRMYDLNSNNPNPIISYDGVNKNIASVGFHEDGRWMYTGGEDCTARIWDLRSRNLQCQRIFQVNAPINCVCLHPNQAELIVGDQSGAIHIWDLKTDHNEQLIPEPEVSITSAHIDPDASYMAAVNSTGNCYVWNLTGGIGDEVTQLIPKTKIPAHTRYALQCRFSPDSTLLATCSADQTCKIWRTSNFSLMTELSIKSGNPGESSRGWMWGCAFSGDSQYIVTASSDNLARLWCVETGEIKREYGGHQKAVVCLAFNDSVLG
Chain of Myc proto-oncogene protein (Homo sapiens) (P01106 whole entry, canonical isoform): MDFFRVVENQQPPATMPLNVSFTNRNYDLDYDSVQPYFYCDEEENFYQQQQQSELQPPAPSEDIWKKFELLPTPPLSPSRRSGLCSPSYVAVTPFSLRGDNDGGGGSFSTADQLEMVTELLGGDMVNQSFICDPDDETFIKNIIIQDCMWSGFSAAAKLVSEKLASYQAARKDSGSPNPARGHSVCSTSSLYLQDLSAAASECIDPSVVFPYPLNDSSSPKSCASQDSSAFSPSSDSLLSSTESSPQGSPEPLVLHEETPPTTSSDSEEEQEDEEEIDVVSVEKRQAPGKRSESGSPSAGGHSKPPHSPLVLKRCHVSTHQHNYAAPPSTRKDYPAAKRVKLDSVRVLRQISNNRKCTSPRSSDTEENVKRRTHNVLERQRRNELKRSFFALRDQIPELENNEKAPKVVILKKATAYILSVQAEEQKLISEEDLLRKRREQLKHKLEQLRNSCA
Chain of Casein kinase I isoform epsilon (P49674 whole entry, looked up, canonical isoform): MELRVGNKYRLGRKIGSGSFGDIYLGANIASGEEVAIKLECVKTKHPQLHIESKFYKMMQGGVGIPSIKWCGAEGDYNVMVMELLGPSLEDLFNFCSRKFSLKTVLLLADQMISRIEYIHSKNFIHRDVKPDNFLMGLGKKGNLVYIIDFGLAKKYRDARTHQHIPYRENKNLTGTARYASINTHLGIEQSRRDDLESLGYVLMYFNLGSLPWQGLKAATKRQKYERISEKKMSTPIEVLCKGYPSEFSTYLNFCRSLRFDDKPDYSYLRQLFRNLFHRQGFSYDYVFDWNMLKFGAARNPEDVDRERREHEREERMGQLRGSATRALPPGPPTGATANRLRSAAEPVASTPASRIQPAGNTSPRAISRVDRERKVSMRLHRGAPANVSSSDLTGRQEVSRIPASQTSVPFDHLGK

CC[C@H](Nc1ncnc2[nH]cnc12)c1nc2cccc(F)c2c(=O)n1-c1ccccc1
Activity [1]: Active | inhibition [2]: inactive | inhibition [3]: inactive | inhibition [4]: inactive | Activity [5]: Active | inhibition [6]: inactive

CC(C)Oc1ccc(-c2nn([C@@H](C)c3oc4ccc(F)cc4c(=O)c3-c3cccc(F)c3)c3ncnc(N)c23)cc1F [UMBRALISIB]
Activity [7]: Active | inhibition [8]: Active | inhibition [9]: Active | inhibition [10]: 43% | inhibition [11]: Active | inhibition at 15 µM [12]: > 50% | inhibition [13]: Active | inhibition [14]: 43% | inhibition [15]: Active | inhibition [16]: Dose-Dependent Effect | inhibition [17]: Active | inhibition [18]: Active | inhibition [19]: inactive | Activity [20]: Active | inhibition [21]: inactive
